Converted amounts (≈) assume the structure as drawn. Where two headings read alike, the source gives them in different places.
Assays:
S. aureus GC 1079 = assay: MIC, broth microdilution; settings: Staphylococcus aureus
E. faecium GC 4556 = assay: MIC, broth microdilution; settings: Enterococcus faecium
E. coli GC 2235 = assay: MIC, broth microdilution; settings: Escherichia coli
E. faecalis GC 2265 = assay: MIC, broth microdilution; settings: Enterococcus faecalis
S. aureus GC 6335 = assay: MIC, broth microdilution; settings: Staphylococcus aureus
E. faecium GC 2243 = assay: MIC, broth microdilution; settings: Enterococcus faecium
S. pyogenes GC 4563 = assay: MIC, broth microdilution; settings: Streptococcus pyogenes
Protocol: Antimicrobial susceptibility testing. The in vitro activities of the antibiotics are determined by the broth microdilution method as recommended by the National Committee for Clinical Laboratory Standards (NCCLS) (1). Mueller-Hinton II broth (MHBII)(BBL Cockeysville, Md.) is the medium employed in the testing procedures. Microtiter plates containing serial dilutions of each antimicrobial agent are inoculated with each organism to yield the appropriate density (10^5 CFU/ml) in a 100 μl final volume. The plates are incubated for 18-22 hours at 35° C. in ambient air. […] Standard Pharmacological Test Procedures
Presented in Tables I-XIII are representative compounds of Formula I which were evaluated against a panel of 40 selected gram-positive and gram-negative bacteria strains by pre-incubation in water, mouse serum or human serum. Representative compounds were first incubated in mouse serum for an hour prior to the in vitro testing against a panel of selected gram-positive and gram-negative bacteria strains. All compounds were also pre-incubated in water for an hour prior to testing as control. Representative compounds of Formula I were incubated in human serum prior to MIC determination.

Staph. = assay: Range of MIC for Staph. strains, including MRSA; settings: Staphylococcus aureus
c. albicans GC 3066 = assay: MIC, broth microdilution
E. faecalis GC 4555 = assay: MIC, broth microdilution; settings: Enterococcus faecalis
E. coli GC 1073 = assay: MIC, broth microdilution; settings: Escherichia coli
Protocol: Antimicrobial susceptibility testing. The in vitro activities of the antibiotics are determined by the broth microdilution method as recommended by the National Committee for Clinical Laboratory Standards (NCCLS) (1). Mueller-Hinton II broth (MHBII)(BBL Cockeysville, Md.) is the medium employed in the testing procedures. Microtiter plates containing serial dilutions of each antimicrobial agent are inoculated with each organism to yield the appropriate density (10^5 CFU/ml) in a 100 μl final volume. The plates are incubated for 18-22 hours at 35° C. in ambient air.
Representative compounds were first incubated in mouse serum for an hour prior to the in vitro testing against a panel of selected gram-positive and gram-negative bacteria strains. All compounds were also pre-incubated in water for an hour prior to testing as control. Representative compounds of Formula I were incubated in human serum prior to MIC determination.

S. agalactiae GC 4564 = assay: MIC, broth microdilution; settings: Streptococcus agalactiae
S. aureus GC 6469 = assay: MIC, broth microdilution; settings: Staphylococcus aureus
E. coli GC 3226 = assay: MIC, broth microdilution; settings: Escherichia coli
E. coli GC 2236 = assay: MIC, broth microdilution; settings: Escherichia coli
S. typhimurium GC 2172 = assay: MIC, broth microdilution; settings: Salmonella enterica, TYPHIMURIUM
E. coli = assay: Range of MIC for E. coli strains; settings: Escherichia coli
E. coli GC 2270 = assay: MIC, broth microdilution; settings: Escherichia coli
E. coli GC 2233 = assay: MIC, broth microdilution; settings: Escherichia coli
E. coli GC 2271 = assay: MIC, broth microdilution; settings: Escherichia coli

CCCCOC(=O)N(CC(=O)Nc1cc(N(C)C)c2c(c1O)C(=O)C1=C(O)[C@]3(O)C(=O)C(C(N)=O)=C(O)[C@@H](N(C)C)[C@@H]3C[C@@H]1C2)C(C)(C)C [Example 58, butyl 2-{[(5aR,6aS,7S,10aS)-9-(aminocarbonyl)-4,7-bis(dimethylamino)-1,8,10a,11-tetrahydroxy-10,12-dioxo-5,5a,6,6a,7,10,10a,12-octahydrotetracen-2-yl]amino}-2-oxoethyl(tert-butyl)carbamate]
MIC (S. aureus GC 1079; GC1079, read-out: MINIMAL INHIBITORY CONCENTRATION MIC, Human Serum): 4 µg/mL (≈ 5.83 µM)
MIC (S. aureus GC 1079; GC1079, read-out: MINIMAL INHIBITORY CONCENTRATION MIC, Mouse Serum): 2 µg/mL (≈ 2.92 µM)
MIC (S. aureus GC 1079; GC1079, read-out: MINIMAL INHIBITORY CONCENTRATION MIC, Water): 8 µg/mL (≈ 11.7 µM)
MIC (E. faecium GC 4556; GC4556, read-out: MINIMAL INHIBITORY CONCENTRATION MIC, Human Serum): 4 µg/mL (≈ 5.83 µM)
MIC (E. faecium GC 4556; GC4556, read-out: MINIMAL INHIBITORY CONCENTRATION MIC, Mouse Serum): 2 µg/mL (≈ 2.92 µM)
MIC (E. faecium GC 4556; GC4556, read-out: MINIMAL INHIBITORY CONCENTRATION MIC, Water): 4 µg/mL (≈ 5.83 µM)
MIC (E. coli GC 2235; GC2235, read-out: MINIMAL INHIBITORY CONCENTRATION MIC, Human Serum): > 64 µg/mL
MIC (E. coli GC 2235; GC2235, read-out: MINIMAL INHIBITORY CONCENTRATION MIC, Mouse Serum): > 64 µg/mL
MIC (E. coli GC 2235; GC2235, read-out: MINIMAL INHIBITORY CONCENTRATION MIC, Water): > 64 µg/mL
MIC (E. faecalis GC 2265; GC2265, read-out: MINIMAL INHIBITORY CONCENTRATION MIC, Human Serum): 4 µg/mL (≈ 5.83 µM)
MIC (E. faecalis GC 2265; GC2265, read-out: MINIMAL INHIBITORY CONCENTRATION MIC, Mouse Serum): 4 µg/mL (≈ 5.83 µM)
MIC (E. faecalis GC 2265; GC2265, read-out: MINIMAL INHIBITORY CONCENTRATION MIC, Water): 4 µg/mL (≈ 5.83 µM)
MIC (S. aureus GC 6335; GC6335, read-out: MINIMAL INHIBITORY CONCENTRATION MIC, Human Serum): 4 µg/mL (≈ 5.83 µM)
MIC (S. aureus GC 6335; GC6335, read-out: MINIMAL INHIBITORY CONCENTRATION MIC, Mouse Serum): 4 µg/mL (≈ 5.83 µM)
MIC (S. aureus GC 6335; GC6335, read-out: MINIMAL INHIBITORY CONCENTRATION MIC, Water): 4 µg/mL (≈ 5.83 µM)
MIC (E. faecium GC 2243; GC2243, read-out: MINIMAL INHIBITORY CONCENTRATION MIC, Human Serum): 4 µg/mL (≈ 5.83 µM)
MIC (E. faecium GC 2243; GC2243, read-out: MINIMAL INHIBITORY CONCENTRATION MIC, Mouse Serum): 2 µg/mL (≈ 2.92 µM)
MIC (E. faecium GC 2243; GC2243, read-out: MINIMAL INHIBITORY CONCENTRATION MIC, Water): 4 µg/mL (≈ 5.83 µM)
MIC (S. pyogenes GC 4563; GC4563, read-out: MINIMAL INHIBITORY CONCENTRATION MIC, Human Serum): 4 µg/mL (≈ 5.83 µM)
MIC (S. pyogenes GC 4563; GC4563, read-out: MINIMAL INHIBITORY CONCENTRATION MIC, Mouse Serum): 4 µg/mL (≈ 5.83 µM)
MIC (S. pyogenes GC 4563; GC4563, read-out: MINIMAL INHIBITORY CONCENTRATION MIC, Water): 4 µg/mL (≈ 5.83 µM)
MIC (Staph.; MRSA, read-out: Range of MIC, Staph (Mouse Serum)): 2 to 4 µg/mL (≈ 2.92 to 5.83 µM)
MIC (Staph.; MRSA, read-out: Range of MIC, Staph (Water)): 4 to 8 µg/mL (≈ 5.83 to 11.7 µM)
MIC (Staph.; read-out: Minimum inhibitory concentration (MIC), Staph (Human Serum)): 4 µg/mL (≈ 5.83 µM)
MIC (Staph.; read-out: Minimum inhibitory concentration (MIC), Staph (Water)): 4 to 8 µg/mL (≈ 5.83 to 11.7 µM)
MIC (c. albicans GC 3066; Candida albicans, GC3066, read-out: MINIMAL INHIBITORY CONCENTRATION MIC): > 64 µg/mL
MINIMAL INHIBITORY CONCENTRATION MIC (c. albicans GC 3066; Human Serum): >64 UG/ML
MINIMAL INHIBITORY CONCENTRATION MIC (c. albicans GC 3066; Mouse Serum): >64 UG/ML
MIC (E. faecalis GC 4555; GC4555, read-out: MINIMAL INHIBITORY CONCENTRATION MIC, Human Serum): 4 µg/mL (≈ 5.83 µM)
MIC (E. faecalis GC 4555; GC4555, read-out: MINIMAL INHIBITORY CONCENTRATION MIC, Mouse Serum): 4 µg/mL (≈ 5.83 µM)
MIC (E. faecalis GC 4555; GC4555, read-out: MINIMAL INHIBITORY CONCENTRATION MIC, Water): 8 µg/mL (≈ 11.7 µM)
MIC (E. coli GC 1073; GC1073, read-out: MINIMAL INHIBITORY CONCENTRATION MIC, Human Serum): > 64 µg/mL
MIC (E. coli GC 1073; GC1073, read-out: MINIMAL INHIBITORY CONCENTRATION MIC, Mouse Serum): > 64 µg/mL
MIC (E. coli GC 1073; GC1073, read-out: MINIMAL INHIBITORY CONCENTRATION MIC, Water): > 64 µg/mL
MIC (S. agalactiae GC 4564; GC4564, read-out: MINIMAL INHIBITORY CONCENTRATION MIC, Human Serum): 16 µg/mL (≈ 23.3 µM)
MIC (S. agalactiae GC 4564; GC4564, read-out: MINIMAL INHIBITORY CONCENTRATION MIC, Mouse Serum): 8 µg/mL (≈ 11.7 µM)
MIC (S. agalactiae GC 4564; GC4564, read-out: MINIMAL INHIBITORY CONCENTRATION MIC, Water): 8 µg/mL (≈ 11.7 µM)
MIC (S. aureus GC 6469; GC6469, read-out: MINIMAL INHIBITORY CONCENTRATION MIC, Human Serum): 4 µg/mL (≈ 5.83 µM)
MIC (S. aureus GC 6469; GC6469, read-out: MINIMAL INHIBITORY CONCENTRATION MIC, Mouse Serum): 2 µg/mL (≈ 2.92 µM)
MIC (S. aureus GC 6469; GC6469, read-out: MINIMAL INHIBITORY CONCENTRATION MIC, Water): 4 µg/mL (≈ 5.83 µM)
MIC (E. coli GC 3226; GC3226, read-out: MINIMAL INHIBITORY CONCENTRATION MIC, Human Serum): > 64 µg/mL
MIC (E. coli GC 3226; GC3226, read-out: MINIMAL INHIBITORY CONCENTRATION MIC, Mouse Serum): > 64 µg/mL
MIC (E. coli GC 3226; GC3226, read-out: MINIMAL INHIBITORY CONCENTRATION MIC, Water): > 64 µg/mL
MIC (E. coli GC 2236; GC2236, read-out: MINIMAL INHIBITORY CONCENTRATION MIC, Human Serum): > 64 µg/mL
MIC (E. coli GC 2236; GC2236, read-out: MINIMAL INHIBITORY CONCENTRATION MIC, Mouse Serum): > 64 µg/mL
MIC (E. coli GC 2236; GC2236, read-out: MINIMAL INHIBITORY CONCENTRATION MIC, Water): > 64 µg/mL
MIC (S. typhimurium GC 2172; read-out: MINIMAL INHIBITORY CONCENTRATION MIC, Human Serum): > 64 µg/mL
MIC (S. typhimurium GC 2172; read-out: MINIMAL INHIBITORY CONCENTRATION MIC, Mouse Serum): > 64 µg/mL
MIC (S. typhimurium GC 2172; read-out: MINIMAL INHIBITORY CONCENTRATION MIC, Water): > 64 µg/mL
MIC (E. coli; 20 h, read-out: Range of MIC, E. coli (Mouse Serum)): > 64 µg/mL
MIC (E. coli; read-out: Minimum inhibitory concentration (MIC), E. coli (Human Serum)): > 64 µg/mL
MIC (E. coli; read-out: Minimum inhibitory concentration (MIC), E. coli (water)): > 64 µg/mL
MIC (E. coli; read-out: Range of MIC, E. coli (Water)): > 64 µg/mL
MIC (E. coli GC 2270; GC2270, read-out: MINIMAL INHIBITORY CONCENTRATION MIC, Human Serum): > 64 µg/mL
MIC (E. coli GC 2270; GC2270, read-out: MINIMAL INHIBITORY CONCENTRATION MIC, Mouse Serum): > 64 µg/mL
MIC (E. coli GC 2270; GC2270, read-out: MINIMAL INHIBITORY CONCENTRATION MIC, Water): > 64 µg/mL
MIC (E. coli GC 2233; GC2233, read-out: MINIMAL INHIBITORY CONCENTRATION MIC, Human Serum): > 64 µg/mL
MIC (E. coli GC 2233; GC2233, read-out: MINIMAL INHIBITORY CONCENTRATION MIC, Mouse Serum): > 64 µg/mL
MIC (E. coli GC 2233; GC2233, read-out: MINIMAL INHIBITORY CONCENTRATION MIC, Water): > 64 µg/mL
MIC (E. coli GC 2271; GC2271, read-out: MINIMAL INHIBITORY CONCENTRATION MIC, Human Serum): > 64 µg/mL
MIC (E. coli GC 2271; GC2271, read-out: MINIMAL INHIBITORY CONCENTRATION MIC, Mouse Serum): > 64 µg/mL
MIC (E. coli GC 2271; GC2271, read-out: MINIMAL INHIBITORY CONCENTRATION MIC, Water): > 64 µg/mL

— patent publication US20070049564A1 (Wyeth, priority 2005, published 2007)
